| Structure (SMILES) | melting point [°C] |
| --- | --- |
| CC(C)COc1ccc(-c2nc(N)ncc2-c2ccc(=O)n(C(C)C)n2)cc1 [Example 200, 6-[2-Amino-4-(4-isobutoxyphenyl)-5-pyrimidinyl]-2-isopropyl-3(2H)-pyridazinone] | 166 |
| CC(C)COc1ccccc1-c1nc(N)ncc1-c1ccc(=O)n(C(C)C)n1 [Example 201, 6-[2-Amino-4-(2-isobutoxyphenyl)-5-pyrimidinyl]-2-isopropyl-3(2H)-pyridazinone] | 189 |
| CC(C)COc1cccc(-c2nc(N)ncc2-c2ccc(=O)n(C(C)C)n2)c1 [Example 202, 6-[2-Amino-4-(3-isobutoxyphenyl)-5-pyrimidinyl]-2-isopropyl-3(2H)-pyridazinone] | 137 |
| CC(C)CCOc1ccccc1-c1nc(N)ncc1-c1ccc(=O)n(C(C)C)n1 [Example 204, 6-{2-Amino-4-(2-(isopentyloxy)phenyl]-5-pyrimidinyl}-2-isopropyl-3(2H)-pyridazinone] | 155 |
| CC(C)CCOc1cccc(-c2nc(N)ncc2-c2ccc(=O)n(C(C)C)n2)c1 [Example 205, 6-{2-Amino-4-[3-(isopentyloxy)phenyl]-5-pyrimidinyl}-2-isopropyl-3(2H)-pyridazinone] | 97 |
| CCCCCCOc1ccc(-c2nc(N)ncc2-c2ccc(=O)n(C(C)C)n2)cc1 [Example 206, 6-{2-Amino-4-[4-(hexyloxy)phenyl]-5-pyrimidinyl}-2-isopropyl-3(2H)-pyridazinone] | 184 |
| CCCCCCOc1ccccc1-c1nc(N)ncc1-c1ccc(=O)n(C(C)C)n1 [Example 207, 6-{2-Amino-4-[2-(hexyloxy)phenyl]-5-pyrimidinyl}-2-isopropyl-3(2H)-pyridazinone] | 92 |
| CCCCCCOc1cccc(-c2nc(N)ncc2-c2ccc(=O)n(C(C)C)n2)c1 [Example 208, 6-{2-Amino-4-[3-(hexyloxy)phenyl]-5-pyrimidinyl}-2-isopropyl-3(2H)-pyridazinone] | 121 |
| CC(C)n1nc(-c2cnc(N)nc2-c2ccc(OCCF)cc2)ccc1=O [Example 209, 6-{2-Amino-4-[4-(2-fluoroethoxy)phenyl]-5-pyrimidinyl}-2-isopropyl-3(2H)-pyridazinone] | 200 |
| CC(C)n1nc(-c2cnc(N)nc2-c2ccccc2OCCF)ccc1=O [Example 210, 6-{2-Amino-4-[2-(2-fluoroethoxy)phenyl]-5-pyrimidinyl}-2-isopropyl-3(2H)-pyridazinone] | 171 |
| CC(C)n1nc(-c2cnc(N)nc2-c2cccc(OCCF)c2)ccc1=O [Example 211, 6-{2-Amino-4-[3-(2-fluoroethoxy)phenyl]-5-pyrimidinyl}-2-isopropyl-3(2H)-pyridazinone] | 123 |
| CC(C)n1nc(-c2cnc(N)nc2-c2ccccc2OCCCF)ccc1=O [Example 215, 6-{2-Amino-4-[2-(3-fluoropropoxy)phenyl]-5-pyrimidinyl}-2-isopropyl-3(2H)-pyridazinone] | 200 |
| CC(C)n1nc(-c2cnc(N)nc2-c2cccc(OCCCF)c2)ccc1=O [Example 216, 6-{2-Amino-4-[3-(3-fluoropropoxy)phenyl]-5-pyrimidinyl}-2-isopropyl-3(2H)-pyridazinone] | 123 |
| CC(C)n1nc(-c2cnc(N)nc2-c2ccc(OCCN(C)C)cc2)ccc1=O [Example 217, 6-(2-amino-4-{4-(2-(dimethylamino)ethoxy]phenyl}-5-pyrimidinyl)-2-isopropyl-3(2H)-pyridazinone] | 162 |
| CC(C)n1nc(-c2cnc(N)nc2-c2ccccc2OCCN(C)C)ccc1=O [Example 218, 6-(2-Amino-4-{2-[2-(dimethylamino)ethoxy]phenyl}-5-pyrimidinyl)-2-isopropyl-3(2H)-pyridazinone] | 198 |
| CC(C)n1nc(-c2cnc(N)nc2-c2cccc(OCCN(C)C)c2)ccc1=O [Example 219, 6-(2-Amino-4-{3-[2-(dimethylamino)ethoxy]phenyl}-5-pyrimidinyl)-2-isopropyl-3(2H)-pyridazinone] | 111 |
| CC(C)n1nc(-c2cnc(N)nc2-c2ccc(OCCN3CCOCC3)cc2)ccc1=O [Example 220, 6-(2-Amino-4-{4-[2-(4-morpholinyl)ethoxy]phenyl}-5-pyrimidinyl)-2-isopropyl-3(2H)-pyridazinone] | 161 |
| CC(C)n1nc(-c2cnc(N)nc2-c2ccccc2OCCN2CCOCC2)ccc1=O [Example 221, 6-(2-Amino-4-{2-[2-(4-morpholinyl)ethoxy]phenyl}-5-pyrimidinyl)-2-isopropyl-3(2H)-pyridazinone] | 115 |
| CC(C)n1nc(-c2cnc(N)nc2-c2cccc(OCCN3CCOCC3)c2)ccc1=O [Example 222, 6-(2-Amino-4-{3-[2-(4-morpholinyl)ethoxy]phenyl}-5-pyrimidinyl)-2-isopropyl-3(2H)-pyridazinone] | 68 |
| CC(C)n1nc(-c2cnc(N)nc2-c2ccc(Br)cc2)ccc1=O [Example 235, 6-[2-Amino-4-(4-bromophenyl)-5-pyrimidinyl]-2-isopropyl-3(2H)-pyridazinone] | 204 |

Now from value to compound:

| melting point [°C] | Structure (SMILES) |
| --- | --- |
| 238 to 240 | CC(C)n1nc(-c2cnc(N)nc2-c2cccc(Br)c2)ccc1=O [Example 236, 6-[2-Amino-4-(3-bromophenyl)-5-pyrimidinyl]-2-isopropyl-3(2H)-pyridazinone] |
| 244 | CC(C)n1nc(-c2cnc(N)nc2-c2c(F)cccc2F)ccc1=O [Example 237, 6-[2-Amino-4-(2,6-difluorophenyl)-5-pyrimidinyl]-2-isopropyl-3(2H)-pyridazinone] |
| 234 | CC(C)n1nc(-c2cnc(N)nc2-c2cc(F)cc(F)c2)ccc1=O [Example 238, 6-[2-Amino-4-(3,5-difluorophenyl)-5-pyrimidinyl]-2-isopropyl-3(2H)-pyridazinone] |
| 208 | CC(C)n1nc(-c2cnc(N)nc2-c2c(Cl)cccc2Cl)ccc1=O [Example 239, 6-[2-Amino-4-(2,6-dichlorophenyl)-5-pyrimidinyl]-2-isopropyl-3(2H)-pyridazinone] |
| 212 | Cc1cccc(C)c1-c1nc(N)ncc1-c1ccc(=O)n(C(C)C)n1 [Example 240, 6-[2-Amino-4-(2,6-dimethylphenyl)-5-pyrimidinyl]-2-isopropyl-3(2H)-pyridazinone] |
| 216 | CC(C)n1nc(-c2cnc(N)nc2-c2ccoc2)ccc1=O [Example 241, 6-[2-Amino-4-(3-furyl)-5-pyrimidinyl]-2-isopropyl-3(2H)-pyridazinone] |
| 234 | CC(C)n1nc(-c2cnc(N)nc2-c2ccsc2)ccc1=O [Example 242, 6-[2-Amino-4-(3-thienyl)-5-pyrimidinyl]-2-isopropyl-3(2H)-pyridazinone] |
| 260 | COc1cccc(OC)c1-c1nc(N)ncc1-c1ccc(=O)n(C(C)C)n1 [Example 243, 6-[2-Amino-4-(2,6-dimethoxyphenyl)-5-pyrimidinyl]-2-isopropyl-3(2H)-pyridazinone] |
| 241 | Cn1nc(-c2cnc(N)nc2-c2ccoc2)ccc1=O [Example 244, 6-[2-Amino-4-(3-furyl)-5-pyrimidinyl]-2-methyl-3(2H)-pyridazinone] |
| 252 | Cn1nc(-c2cnc(N)nc2-c2ccsc2)ccc1=O [Example 245, 6-[2-Amino-4-(3-thienyl)-5-pyrimidinyl]-2-methyl-3(2H)-pyridazinone] |
| 166 | CN(C)c1ncc(-c2ccc(=O)n(C)n2)c(-c2ccc(Cl)cc2)n1 [Example 246, 6-[4-(4-chlorophenyl)-2-(dimethylamino)-5-pyrimidinyl]-2-methyl-3(2H)-pyridazinone] |
| 165 | COc1ccc(-c2nc(N(C)C)ncc2-c2ccc(=O)n(C)n2)cc1 [Example 247, 6-[2-(Dimethylamino)-4-(4-methoxyphenyl)-5-pyrimidinyl]-2-methyl-3(2H)-pyridazinone] |
| 184 | CN(C)c1ncc(-c2ccc(=O)n(C)n2)c(-c2cccc(F)c2)n1 [Example 248, 6-[2-(Dimethylamino)-4-(3-fluorophenyl)-5-pyrimidinyl]-2-methyl-3(2H)-pyridazinone] |
| 158 | COc1ccc(-c2nc(N(C)C)ncc2-c2ccc(=O)n(C)n2)cc1F [Example 249, 6-[2-(Dimethylamino)-4-(3-fluoro-4-methoxyphenyl)-5-pyrimidinyl]-2-methyl-3(2H)-pyridazinone] |
| 180 to 181 | COCC(C)n1nc(-c2cnc(N)nc2-c2ccccc2)ccc1=O (centres unmarked) [Example 250, 6-(2-Amino-4-phenyl-5-pyrimidinyl)-2-(2-methoxy-1-methylethyl)-3(2H)-pyridazinone] |
| 222 to 223 | CC(CO)n1nc(-c2cnc(N)nc2-c2ccccc2)ccc1=O (centres unmarked) [Example 251, 6-(2-amino-4-phenyl-5-pyrimidinyl)-2-(2-hydroxy-1-methylethyl)-3(2H)-pyridazinone] |
| 235 to 237 | CC(C)n1nc(-c2c(Cl)nc(N)nc2-c2ccccc2)ccc1=O [Example 252, 6-(2-amino-4-chloro-6-phenyl-5-pyrimidinyl)-2-isopropyl-3(2H)-pyridazinone] |
| 213 to 215 | Cc1nc(N)nc(-c2ccccc2)c1-c1ccc(=O)n(C(C)C)n1 [Example 253, 6-(2-amino-4-methyl-6-phenyl-5-pyrimidinyl)-2-isopropyl-3(2H)-pyridazinone] |

Source: patent US20050043315A1, “Aminopyrimidine compounds, processes for their preparation and pharmaceutical compositions containing them” (priority 2002, published 2005)
